Measured values reported in PubChem BioAssay AID1360 (Sanford-Burnham Center for Chemical Genomics, 2008).
Calls of active or inactive are those of the source.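 The calls were made as follows: active = no phosphorylated c-Jun band on immunoblot of thapsigargin-stressed cells, like the unstressed control; inactive = a phosphorylated c-Jun band visible, like the stressed control.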

Test system: CSM14.1 cells, phospho-c-Jun Western blot, thapsigargin
Experiment: phospho-c-Jun suppression under ER stress – CSM14.1 cells, Western blot, mechanism study for ER stress cell death inhibitors (AID 1360)

Row | Structure (SMILES) | outcome
1 | CC1(C)CC(=O)C2=C(C1)Nc1ccccc1NC2c1ccc(-c2ccccc2)cc1 (stereo unspecified) | active
2 | COc1ccc(C2CC(=O)C3=C(C2)Nc2ccccc2NC3c2cccc(Br)c2)cc1OC (stereo unspecified) | active
3 | COc1ccc(C2CC(=O)C3=C(C2)Nc2ccccc2NC3c2cc(C)ccc2C)cc1 (stereo unspecified) | active
4 | CCOc1cccc(C2Nc3ccccc3NC3=C2C(=O)CC(c2ccc(OC)cc2)C3)c1 (stereo unspecified) | active
5 | CCCOc1ccc(C2Nc3ccccc3NC3=C2C(=O)CC(c2ccc(OC)c(OC)c2)C3)cc1 (stereo unspecified) | active
6 | COc1ccc(C2CC(=O)C3=C(C2)Nc2ccccc2NC3c2cccc(Oc3ccccc3)c2)cc1OC (stereo unspecified) | active
7 | COc1ccc(C2CC(=O)C3=C(C2)Nc2ccccc2NC3c2cccc(C(F)(F)F)c2)cc1OC (stereo unspecified) | active
8 | COc1ccc(C2CC(=O)C3=C(C2)Nc2ccccc2NC3c2ccccc2C(F)(F)F)cc1OC (stereo unspecified) | active
9 | O=C1CC(c2ccccc2)CC2=C1C(c1c(F)cccc1Cl)Nc1ccccc1N2 (stereo unspecified) | active
10 | CSc1ccc(C2Nc3ccccc3NC3=C2C(=O)CC(c2ccccc2)C3)cc1 (stereo unspecified) | active
11 | CCOc1cc(C2Nc3ccccc3NC3=C2C(=O)CC(c2ccc(OC)cc2)C3)cc(Cl)c1O (stereo unspecified) | active
